In patent publication US20250340565A1, “CD73 INHIBITOR COMPOUNDS” (AdoRx Therapeutics Limited, priority 2022, published 2025) one finds IC50 data, which are given here for 24 compounds.

Test [1] has as its target human (h)CD73 (amino acids Trp27-Lys547) (Homo sapiens, UniProt P21589). The test is described as follows: CD73 inhibition assay (Malachite Green phosphate detection). The class given is biochemical. To be noted: 250 pM hCD73, 12.5 μM AMP, 20 min pre-incubation, absorbance 620 nm. In short, it runs like this:
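250 pM hCD73 (Trp27-Lys547) preincubated 20 min with compound (1% DMSO) in 25 mM Tris pH 7.5, 5 mM MgCl2, 0.002% Tween20. Reaction with 12.5 μM AMP for 20 min at room temperature; phosphate detected by malachite green at 620 nm. Data normalised to no compound (0%) and 10 μM control compound (100%).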

The target of test [2] is CD73 activity in U138-MG cells (Homo sapiens (Human), UniProt P21589). Kind of test: U138-MG inhibition assay (inorganic phosphate from AMP, PiColorLock Gold). Type of test: cell-based. To be noted: 100 μM AMP, 30 min pre-incubation, 1 hour at 37° C. In short, it runs like this: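 Washed U138-MG cells in HEPES-buffered saline (pH 7.4) preincubated 30 min at 37 °C with inhibitor, then given 100 μM AMP (final) for 1 h at 37 °C. Released phosphate in supernatant read by PiColorLock Gold; no-AMP wells define 100% inhibition. IC50 taken as inflection of sigmoidal curve.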

The next test addresses CD73 in whole blood (Homo sapiens (Human), UniProt P21589). The test is described as follows: Whole blood AMP Glo assay. The note with it: whole blood of healthy volunteers, 10 μM AMP, 30 min pre-incubation, 15 min at 37° C., levamisole 1.5 mM. Type of test: cell-based. In short, it runs like this: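 Heparinised healthy-donor human whole blood, with 1.5 mM levamisole, preincubated with compound 30 min at 37 °C, then 10 μM AMP added for 15 min at 37 °C (0.6% DMSO). Remaining plasma AMP measured by AMP-Glo luminescence against a standard curve; IC50 from curve inflection point.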

Counter-ions that a name gives are not always drawn.

Sequence of CD73 in whole blood (P21589 27-574): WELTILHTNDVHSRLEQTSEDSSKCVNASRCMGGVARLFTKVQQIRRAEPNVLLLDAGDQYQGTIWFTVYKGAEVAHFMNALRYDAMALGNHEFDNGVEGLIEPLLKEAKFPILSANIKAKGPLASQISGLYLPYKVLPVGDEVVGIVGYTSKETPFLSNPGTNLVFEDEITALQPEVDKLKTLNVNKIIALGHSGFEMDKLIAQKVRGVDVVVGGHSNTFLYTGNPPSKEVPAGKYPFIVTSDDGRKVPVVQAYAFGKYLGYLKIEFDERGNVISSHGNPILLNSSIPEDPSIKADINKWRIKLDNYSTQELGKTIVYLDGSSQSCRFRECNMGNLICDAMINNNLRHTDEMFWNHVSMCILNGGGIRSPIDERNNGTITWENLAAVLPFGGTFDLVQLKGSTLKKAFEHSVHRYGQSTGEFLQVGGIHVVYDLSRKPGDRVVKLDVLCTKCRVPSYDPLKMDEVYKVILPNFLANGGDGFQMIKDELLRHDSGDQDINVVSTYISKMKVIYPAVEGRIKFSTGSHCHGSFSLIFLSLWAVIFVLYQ
Sequence of CD73 activity in U138-MG cells (P21589 27-574): as above

What is called IC50 is the concentration that inhibits the measured activity by half. Read a low IC50 as greater potency. For `O=c1[nH]cc(-c2cc3c(N4CCC(OCCN5CCC(C(F)(F)F)CC5)C4)ncnc3o2)c(=O)[nH]1` (stereo not drawn) [Example 21, 5-[4-[3-[2-[4-(Trifluoromethyl)-1-piperidyl]ethoxy]pyrrolidine-1-yl]furo[2,3-d]pyrimidin-6-yl]-1H-pyrimidine-2,4-dione], the IC50 is 100 nM in test [1], 70.8 nM in test [2] and 40.2 nM against CD73 in whole blood.

For `O=C(OC1CN(c2ncnc3oc(-c4c[nH]c(=O)[nH]c4=O)cc23)CC1(F)F)N1CCOCC1` (stereo not drawn) [Example 22, [1-[6-(2,4-Dioxo-1H-pyrimidin-5-yl)furo[2,3-d]pyrimidin-4-yl]-4,4-difluoro-pyrrolidin-3-yl]morpholine-4-carboxylate], the IC50 in test [1] was found to be 136 nM; in test [2] it was 84.5 nM; on CD73 in whole blood it was 65.5 nM.

In the case of `O=c1[nH]cc(-c2cc3c(N4CC(F)(F)C5(CCC5)C4)ncnc3o2)c(=O)[nH]1` [Example 19, 5-[4-(8,8-Difluoro-6-azaspiro[3.4]octan-6-yl)furo[2,3-d]pyrimidin-6-yl]-1H-pyrimidine-2,4-dione], the IC50 in test [1] is 58.2 nM; in test [2], 68.7 nM; on CD73 in whole blood, 1240 nM.

In the case of `O=c1[nH]cc(-n2cc3c(N4CCC5(COC5)C4)ncc(F)c3n2)c(=O)[nH]1` [Example 26.4, 5-[7-fluoro-4-(2-oxa-7-azaspiro[3.4]octan-7-yl)pyrazolo[4,3-c]pyridin-2-yl]-1H-pyrimidine-2,4-dione], the IC50 in test [1] was determined as 68.2 nM; in test [2] it was 17 nM; at CD73 in whole blood it was 69 nM.

Regarding `O=c1[nH]cc(-n2cc3c(N4CC(F)(F)C5(CCC5)C4)ncc(Cl)c3n2)c(=O)[nH]1` [Example 28.2, 5-[7-chloro-4-(8,8-difluoro-6-azaspiro[3.4]octan-6-yl)pyrazolo[4,3-c]pyridin-2-yl]-1H-pyrimidine-2,4-dione], the values for the IC50 (in test [1]; in test [2]; against CD73 in whole blood) were 20 nM, 1.9 nM and 26 nM, respectively.

For the compound `O=c1[nH]cc(-c2cc3c(N4CC(OCCN5CCCCC5)C(F)(F)C4)ncnc3s2)c(=O)[nH]1` (stereo not drawn) [Example 5, 5-[4-[3,3-Difluoro-4-[2-(1-piperidyl)ethoxy]pyrrolidine-1-yl]thieno[2,3-d]pyrimidin-6-yl]-1H-pyrimidine-2,4-dione formate salt], the values for the IC50 (in test [1]; in test [2]; on CD73 in whole blood) were 32 nM, 179 nM and 184 nM, respectively.

Regarding `O=C1N=CC(c2cc3c(N4CCC(OCCN5CCCCC5)C4)nc(Cl)nn3c2)C(=O)N1` (stereo not drawn) [Example 18, 5-[2-Chloro-4-[3-[2-(1-piperidyl)ethoxy]pyrrolidin-1-yl]pyrrolo[2,1-f][1,2,4]triazin-6-yl]-5H-pyrimidine-2,4-dione], the IC50 in test [1] worked out at 62.5 nM; in test [2], 91.1 nM; on CD73 in whole blood, 118 nM.

For the compound `O=c1[nH]cc(-n2cc3c(N4CC(F)(F)C5(CC5)C4)ncc(F)c3n2)c(=O)[nH]1` [Example 26.5, 5-[4-(7,7-difluoro-5-azaspiro[2.4]heptan-5-yl)-7-fluoro-pyrazolo[4,3-c]pyridin-2-yl]-1H-pyrimidine-2,4-dione], the IC50 is 46 nM in test [1], 14 nM in test [2] and 254 nM against CD73 in whole blood.

With `O=c1[nH]cc(-c2cc3ncnc(N4CCC(OCCN5CCCCC5)C4)c3s2)c(=O)[nH]1` (stereo not drawn) [Example 8, 5-[4-[3-[2-(1-Piperidyl)ethoxy]pyrrolidin-1-yl]thieno[3,2-d]pyrimidin-6-yl]-1H-pyrimidine-2,4-dione], the values for the IC50 (in test [1]; in test [2]; on CD73 in whole blood) were 20.1 nM, 34.7 nM and 50.7 nM, respectively.

Consider `CC1(C)CN(c2cncc3nn(-c4c[nH]c(=O)[nH]c4=O)cc23)CC1(F)F` [Example 31, 5-[4-(3,3-difluoro-4,4-dimethyl-pyrrolidin-1-yl)pyrazolo[3,4-c]pyridine-2-yl]-1H-pyrimidine-2,4-dione], for which the results for the IC50 (in test [1]; in test [2]; at CD73 in whole blood) were 20.8 nM, 12.3 nM and 32 nM, respectively.

As for `CC1(C)CCN(c2ncnc3sc(-c4c[nH]c(=O)[nH]c4=O)cc23)C1` [Example 2.1, 5-[4-(3,3-Dimethylpyrrolidin-1-yl)thieno[2,3-d]pyrimidin-6-yl]-1H-pyrimidine-2,4-dione], the figures for the IC50 (in test [1]; in test [2]; at CD73 in whole blood) were 401 nM, 1120 nM and 6990 nM, respectively.

With `CC1(C)CCN(c2ncnc3nn(-c4c[nH]c(=O)[nH]c4=O)cc23)C1` [Example 13.6, 5-[4-(3,3-Dimethylpyrrolidin-1-yl)pyrazolo[3,4-d]pyrimidin-2-yl]-1H-pyrimidine-2,4-dione], the IC50 in test [1] was determined as 31.1 nM; in test [2], 8.6 nM; against CD73 in whole blood, 1.19 nM.

Regarding `CC1(C)CN(c2nccc3nn(-c4c[nH]c(=O)[nH]c4=O)cc23)CC1(F)F` [Example 27, 5-[4-(3,3-Difluoro-4,4-dimethyl-pyrrolidin-1-yl)pyrazolo[4,3-c]pyridin-2-yl]-1H-pyrimidine-2,4-dione], the IC50 in test [1] amounted to 65 nM; in test [2] it was 20 nM; against CD73 in whole blood it was 16 nM.

`CC1(C)CN(c2ncc(C#N)c3nn(-c4c[nH]c(=O)[nH]c4=O)cc23)CC1(F)F` [Example 29, 4-(3,3-difluoro-4,4-dimethyl-pyrrolidin-1-yl)-2-(2,4-dioxo-1H-pyrimidin-5-yl)pyrazolo[4,3-c]pyridine-7-carbonitrile]: the IC50 in test [1] came out at 52 nM; in test [2], 8 nM; at CD73 in whole blood, 47 nM.

As for `CN1CCOC(COC2CN(c3ncnc4sc(-c5c[nH]c(=O)[nH]c5=O)cc34)CC2(F)F)C1` (stereo not drawn) [Example 4.3, 5-[4-[3,3-Difluoro-4-[(4-methylmorpholin-2-yl)methoxy]pyrrolidine-1-yl]thieno[2,3-d]pyrimidin-6-yl]-1H-pyrimidine-2,4-dione formate salt], the IC50 worked out at 269 nM in test [1], 498 nM in test [2] and 516 nM at CD73 in whole blood.

With `N#Cc1ccc(OC2CCN(c3ncnc4sc(-c5c[nH]c(=O)[nH]c5=O)cc34)C2)nc1` (stereo not drawn) [Example 3, 6-[1-[6-(2,4-Dioxo-1H-pyrimidin-5-yl)thieno[2,3-d]pyrimidin-4-yl]pyrrolidin-3-yl]oxypyridine-3-carbonitrile], the figures for the IC50 (in test [1]; in test [2]; against CD73 in whole blood) were 59.6 nM, 588 nM and 2220 nM, respectively.

With `O=c1[nH]cc(-n2cc3c(N4CC(F)(F)C5(CC5)C4)ncc(Cl)c3n2)c(=O)[nH]1` [Example 28.1, 5-[7-chloro-4-(7,7-difluoro-5-azaspiro[2.4]heptan-5-yl)pyrazolo[4,3-c]pyridin-2-yl]-1H-pyrimidine-2,4-dione], the values for the IC50 (in test [1]; in test [2]; against CD73 in whole blood) were 15 nM, 3.6 nM and 20 nM, respectively.

For `O=c1[nH]cc(-c2cc3c(N4CCC(OCCN5CCCCC5)C4)ncnc3s2)c(=O)[nH]1` (stereo not drawn) [Example 2, 5-[4-[3-[2-(1-Piperidyl)ethoxy]pyrrolidin-1-yl]thieno[2,3-d]pyrimidin-6-yl]-1H-pyrimidine-2,4-dione], the IC50 was 11.1 nM in test [1], 46.1 nM in test [2] and 47 nM at CD73 in whole blood.

Turning to `CCC1(C)CCN(c2ncnc3nn(-c4c[nH]c(=O)[nH]c4=O)cc23)C1` (stereo not drawn) [Example 13.5, 5-[4-(3-Ethyl-3-methyl-pyrrolidin-1-yl)pyrazolo[3,4-d]pyrimidin-2-yl]-1H-pyrimidine-2,4-dione], the IC50 in test [1] turned out to be 84.7 nM; in test [2] it was 10.5 nM; on CD73 in whole blood, 2.12 nM.

As to `O=c1[nH]cc(-c2cc3c(N4CCC(CO)C4)ncnc3s2)c(=O)[nH]1` (stereo not drawn) [Example 1, 5-[4-[3-(Hydroxymethyl)pyrrolidin-1-yl]thieno[2,3-d]pyrimidin-6-yl]-1H-pyrimidine-2,4-dione], the IC50 in test [1] worked out at 715 nM; in test [2], 2340 nM; at CD73 in whole blood, 8750 nM.

With `CC1(C)CN(c2nccn3nc(-c4c[nH]c(=O)[nH]c4=O)cc23)CC1(F)F` [Example 25, 5-[4-(3,3-Difluoro-4,4-dimethyl-pyrrolidin-1-yl)pyrazolo[1,5-a]pyrazin-2-yl]-1H-pyrimidine-2,4-dione], the IC50 was 34.2 nM in test [1], 38.6 nM in test [2] and 155 nM against CD73 in whole blood.

With `O=c1[nH]cc(-c2cc3c(N4CCC(OCc5ccccn5)C4)ncnc3s2)c(=O)[nH]1` (stereo not drawn) [Example 4.1, 5-[4-[3-(2-pyridylmethoxy)pyrrolidine-1-yl]thieno[2,3-d]pyrimidin-6-yl]-1H-pyrimidine-2,4-dione formate salt], the values for the IC50 (in test [1]; in test [2]; on CD73 in whole blood) were 96 nM, 428 nM and 782 nM, respectively.

In the case of `O=c1[nH]cc(-c2cc3c(N4CCC(OCCN5CCCCC5)C4)ncnc3o2)c(=O)[nH]1` (stereo not drawn) [Example 7, 5-[4-[3-[2-(1-Piperidyl)ethoxy]pyrrolidin-1-yl]furo[2,3-d]pyrimidin-6-yl]-1H-pyrimidine-2,4-dione formate salt], the figures for the IC50 (in test [1]; in test [2]; against CD73 in whole blood) were 22.8 nM, 7.2 nM and 12.5 nM, respectively.

For `O=c1[nH]cc(-c2nc3c(N4CCC(OCCN5CCCCC5)C4)ncnc3[nH]2)c(=O)[nH]1` (stereo not drawn) [Example 15, 5-[6-[3-[2-(1-Piperidyl)ethoxy]pyrrolidin-1-yl]-9H-purin-8-yl]-1H-pyrimidine-2,4-dione], the IC50 in test [1] was 139 nM; in test [2], 65.6 nM; against CD73 in whole blood, 56.5 nM.
